Reference: US20110152092A1, “Herbicidal compositions comprising flufenacet” (Bayer CropScience AG, priority 2009, published 2011)

How the values were obtained:
HORVS [1] = assay: Greenhouse trial, PO application, selective post-emergence action on crop (test method 4); format: in vivo, Hordeum vulgare, summer barley; settings: g of AS/ha: (A) 120, (B) 1200, (C) 120, mixture 120 + 1200 + 120
Protocol: (§1) In the standard design of the test, seeds of various broad-leaved weed and weed grass biotypes (origins) were sown in a 8-13 cm diameter pot filled with natural soil of a standard field soil (loamy silt; non-sterile) and covered with a covering soil layer of about 1 cm. The pots were then cultivated in a greenhouse (12-16 h of light, temperature day 20-22° C., night 15-18° C.) until the time of application. The pots were treated on a laboratory track sprayer with spray liquors comprising the compositions according to the invention, mixtures of the prior art or components used individually. Application of the active compounds or active compound combinations formulated as WG, WP, EC or otherwise was carried out at the appropriate growth stages of the plants. The application rate for the spray application was 100-600 l of water/ha. After the treatment, the plants were returned to the greenhouses.
(§2) About 3 weeks after the application, the soil action or/and foliar action was assessed visually according to a scale of 0-100% in comparison to an untreated comparative group: 0%=no noticeable effect compared to the untreated comparative group; 100%=full effect compared to the untreated comparative group. […]

HORVS [2] = assay: Greenhouse trial, PE application, selective pre-emergence action on crop (test method 3); format: in vivo, Hordeum vulgare, summer barley; settings: g of AS/ha: (A) 90, (B) 1200, (C) 90, mixture 90 + 1200
Protocol: as §1, §2

AVEFA = assay: Greenhouse trial, pre-sowing application 7 days prior to sowing (test method 5); format: in vivo, Avena fatua; settings: g of AS/ha: (A) 90, (B) 1200, (C) 90, mixture 90 + 1200
Protocol: as §1, §2

HORVS [3] = assay: as above; format: in vivo, Hordeum vulgare, summer barley; settings: g of AS/ha: (A) 90, (B) 1200, (C) 90, mixture 90 + 1200
Protocol: as §1, §2

TRZAS = assay: Greenhouse trial, PE application with different irrigation variations (test method 6); format: in vivo, Triticum aestivum, summer wheat; settings: g of AS/ha: (A) 120, (B) 1200, (C) 90, mixture 120 + 1200 + 90
Protocol: as §1
(§3) About 3 weeks after the application, the soil action or/and foliar action was assessed visually according to a scale of 0-100% in comparison to an untreated comparative group: 0%=no noticeable effect compared to the untreated comparative group; 100%=full effect compared to the untreated comparative group.
(§4) (notes: the term “seeds” also includes vegetative propagation forms such as, for example, rhizome pieces; abbreviations used: h light=hours of illumination, g of AS/ha=gram of active substance per hectare, l/ha=liter per hectare, S=sensitive, R=resistant) • 1. Pre-emergence action against weeds: seeds of various broad-leaved weed and weed grass biotypes (origins) were sown in a 8-13 cm diameter pot filled with natural soil of a standard field soil (loamy silt; non-sterile) and covered with a covering soil layer of about 1 cm. The pots were then cultivated in a greenhouse (12-16 h of light, temperature day 20-22° C., night 15-18° C.) until the time of application. The pots were treated at the BBCH stage 00-10 of the seeds/plants on a laboratory track sprayer with spray liquors comprising the compositions according to the invention, mixtures or components used individually, as WG, WP, EC or other formulations. The application rate for the spray application was 100-600 l of water/ha. After the treatment, the plants were returned to the greenhouses and, when required, treated with fertilizer and watered. • 2. Post-emergence action against weeds: seeds of various broad-leaved weed and weed grass biotypes (origins) were sown in a 8-13 cm diameter pot filled with natural soil of a standard field soil (loamy silt; non-sterile) and covered with a covering soil layer of about 1 cm. The pots were then cultivated in a greenhouse (12-16 h of light, temperature day 20-22° C., night 15-18° C.) until the time of application. […]

STEME = assay: Greenhouse trial, activity with different soil types; format: in vivo, Stellaria media; settings: IU/EC73 soil versus IU soil; g of AS/ha: (A) 120, (B) 1200, (C) 90, mixture 120 + 1200 + 90
Protocol: as §1, §3
(§5) (notes: the term “seeds” also includes vegetative propagation forms such as, for example, rhizome pieces; abbreviations used: h light=hours of illumination, g of AS/ha=gram of active substance per hectare, l/ha=liter per hectare, S=sensitive, R=resistant) • 1. Pre-emergence action against weeds: seeds of various broad-leaved weed and weed grass biotypes (origins) were sown in a 8-13 cm diameter pot filled with natural soil of a standard field soil (loamy silt; non-sterile) and covered with a covering soil layer of about 1 cm. The pots were then cultivated in a greenhouse (12-16 h of light, temperature day 20-22° C., night 15-18° C.) until the time of application. The pots were treated at the BBCH stage 00-10 of the seeds/plants on a laboratory track sprayer with spray liquors comprising the compositions according to the invention, mixtures or components used individually, as WG, WP, EC or other formulations. The application rate for the spray application was 100-600 l of water/ha. After the treatment, the plants were returned to the greenhouses and, when required, treated with fertilizer and watered. • 2. Post-emergence action against weeds: seeds of various broad-leaved weed and weed grass biotypes (origins) were sown in a 8-13 cm diameter pot filled with natural soil of a standard field soil (loamy silt; non-sterile) and covered with a covering soil layer of about 1 cm. The pots were then cultivated in a greenhouse (12-16 h of light, temperature day 20-22° C., night 15-18° C.) until the time of application. The pots were treated at various BBCH stages between 11-25 of the seeds/plants, i.e. generally between two to three weeks after the start of the cultivation, on a laboratory track sprayer with spray liquors comprising the compositions according to the invention, mixtures or components used individually, as WG, WP, EC or other formulations. The application rate for the spray application was 100-600 l of water/ha. After the treatment, the plants were returned to the greenhouses and, when required, treated with fertilizer and watered. • 3. Selective pre-emergence action: seeds of various crop species (origins) were sown in a 8-13 cm diameter pot filled with natural soil of a standard field soil (loamy silt; non-sterile) and covered with a covering soil layer of about 1 cm. The pots were then cultivated in a greenhouse (12-16 h of light, temperature day 20-22° C., night 15-18° C.) until the time of application. The pots were treated at the BBCH stage 00-10 of the seeds/plants on a laboratory track sprayer with spray liquors comprising the compositions according to the invention, mixtures or components used individually, as WG, WP, EC or other formulations. The application rate for the spray application was 100-600 l of water/ha. […]

HORVS [4] = assay: as above; format: in vivo, Hordeum vulgare, summer barley; settings: g of AS/ha: (A) 120, (B) 1200, (C) 90, mixture 120 + 1200 + 90
Protocol: as §1, §3
(notes: the term “seeds” also includes vegetative propagation forms such as, for example, rhizome pieces; abbreviations used: h light=hours of illumination, g of AS/ha=gram of active substance per hectare, l/ha=liter per hectare, S=sensitive, R=resistant) • 1. Pre-emergence action against weeds: seeds of various broad-leaved weed and weed grass biotypes (origins) were sown in a 8-13 cm diameter pot filled with natural soil of a standard field soil (loamy silt; non-sterile) and covered with a covering soil layer of about 1 cm. The pots were then cultivated in a greenhouse (12-16 h of light, temperature day 20-22° C., night 15-18° C.) until the time of application. The pots were treated at the BBCH stage 00-10 of the seeds/plants on a laboratory track sprayer with spray liquors comprising the compositions according to the invention, mixtures or components used individually, as WG, WP, EC or other formulations. The application rate for the spray application was 100-600 l of water/ha. After the treatment, the plants were returned to the greenhouses and, when required, treated with fertilizer and watered. • 2. Post-emergence action against weeds: seeds of various broad-leaved weed and weed grass biotypes (origins) were sown in a 8-13 cm diameter pot filled with natural soil of a standard field soil (loamy silt; non-sterile) and covered with a covering soil layer of about 1 cm. The pots were then cultivated in a greenhouse (12-16 h of light, temperature day 20-22° C., night 15-18° C.) until the time of application. The pots were treated at various BBCH stages between 11-25 of the seeds/plants, i.e. generally between two to three weeks after the start of the cultivation, on a laboratory track sprayer with spray liquors comprising the compositions according to the invention, mixtures or components used individually, as WG, WP, EC or other formulations. The application rate for the spray application was 100-600 l of water/ha. After the treatment, the plants were returned to the greenhouses and, when required, treated with fertilizer and watered. • 3. […]

ALOMY = assay: Greenhouse trial, PE application on sensitive and resistant biotypes (test method 8); format: in vivo, Alopecurus myosuroides; settings: g of AS/ha: (A) 90, (B) 1200, (C) 90, mixture 90 + 1200 + 90, iodosulfuron 10; for activity ALOMY resistant (visual, scale 0-100%): resistant biotype; for activity ALOMY sensitive (visual, scale 0-100%): sensitive biotype
Protocol: as §1, §3, §5

TRZAW = assay: Greenhouse trial, PE application at different sowing depths (test method 9); format: in vivo, Triticum aestivum, winter wheat; settings: g of AS/ha: (A) 120, (B) 1200, (C) 90, mixture 90 + 1200 + 90
Protocol: as §1, §3, §4

Row | Compound | activity on crop plant HORVS (visual, scale 0-100%) (HORVS [1]) [%] | activity on crop plant HORVS (visual, scale 0-100%) (HORVS [2]) [%] | activity AVEFA (visual, scale 0-100%) (AVEFA) [%] | activity on crop plant HORVS (visual, scale 0-100%) (HORVS [3]) [%] | activity on crop plant TRZAS (visual, scale 0-100%) (TRZAS; irrigation from above) [%] | activity on crop plant TRZAS (visual, scale 0-100%) (TRZAS; irrigation from below) [%] | Difference of the soil types, STEME (STEME) [%] | activity on crop plant HORVS IU soil (visual, scale 0-100%) (HORVS [4]; IU soil) [%] | activity on crop plant HORVS IU/EC73 soil (visual, scale 0-100%) (HORVS [4]; IU/EC73 soil) [%] | activity ALOMY resistant (visual, scale 0-100%) (ALOMY) [%] | activity ALOMY sensitive (visual, scale 0-100%) (ALOMY) [%] | activity on crop plant TRZAW 5 mm (visual, scale 0-100%) (TRZAW; sowing depth 5 mm) [%] | activity on crop plant TRZAW 20 mm (visual, scale 0-100%) (TRZAW; sowing depth 20 mm) [%]
1 | O=C(Nc1ccc(F)cc1F)c1cccnc1Oc1cccc(C(F)(F)F)c1 [(C) diflufenican, N-(2,4-difluorophenyl)-2-[3-(trifluoromethyl)phenoxy]-3-pyridinecarboxamide] | 5 | 5 | 0 | 30 | 10 | 0 | −57 | 0 | 0 | 30 | 30 | 20 | 20
2 | COc1nc(C)nc(NC(=O)NS(=O)(=O)c2cc(I)ccc2C(=O)O)n1 [C)^1 iodosulfuron, iodosulfuron] | – | – | – | – | – | – | – | – | – | 50 | 98 | – | –
